Here are results for two molecules from patent US20250057960A1, “OLIGOSACCHARIDE COMPLEXES AND USES” (BioNTech SE, priority 2021, published 2025).

One test concerns human PBMCs. Put plainly: Pro-inflammatory cytokine secretion in human PBMCs with alternative TLR inhibitors (Example 14). The test is classed as cell-based. Particulars: in JLF218+Tween40+TL2-C29 (1:0.5:0.5) modRNA formulation, N/P6; 24 hours after transfection. The method, then: The present example evaluated the impact of different TLR inhibitors. Pro-inflamatory cytokine secretion in human PBMCs was evaluated for two different oligosaccharide formulations (JLF218 and JLF244) in combination with either TAK-242 or TL2-C29. Six formulations were tested, as illustrated in table below: […]
All formulations were complexed with modRNA (coding for firefly luciferase) formulated at N/P6. Formulations were complexed in MBG Buffer (final concentration 5% w/v Glucose, 10 mM MES, pH 6.1), at RNA final concentration of 0.15 mg/mL and the mixing ratio of the RNA containing solution and the oligosccharide+Tween40 (+TAK-242 or TL2-C29 as indicated) containing solution was 9:1 (v:v) for all the cases.
IL-6, TNFα, IL1b, IFNg, MIP1b, IP10 and MCP1 secretion was evaluated 24 hours after transfection of 1e^6 human PMBCs in supernatant using the MSD Kit Standard Protocol. Cell viability was evaluated using a XTT Standard Assay. In the following figures, C29 refers to TL2-C29. FIG. 12A is a plot illustrating IL-6 secretion of human PBMCs (hPMBCs) for different doses of tested formulations. FIG. 12B is a plot illustrating TNFa secretion of hPBMCs for different doses of tested formulations. FIG. 12C is a plot illustrating IL1b secretion of hPBMCs for different doses of tested formulations. […]

Another test relates to hPBMCs. The test can be described thus: Secretion of pro-inflammatory cytokines and chemokines in hPBMCs after transfection with modRNA formulations (Example 10). The test is classed as cell-based, human. Particulars: incorporated into cationic oligosaccharide (JLF218)+Tween40 modRNA complex, 1:0.5:0.5 molar ratio, N/P6; 24 hours after transfection; FIGS. 10A to 10D. The text has this:
The present example provides complexes comprising a third component which can inhibit the immune response against the expressed protein from the delivered RNA, avoiding pro-inflammatory signals that can hamper the therapeutic effect of RNA-therapy. In the present experiment, a TLR4 inhibitor molecule, TAK-242, was used alone or together with a wide spectrum immunosuppressor, dexamethasone, in combination with cationic oligosaccharides described herein+Tween40 to formulate modRNA encoding for luciferase.
In the first part of the experiment, secretion of pro-inflammatory cytokines in hPBMCs was evaluated for two different cationic oligosaccharides: JLF218 and PRX093, whereas different combinations including TAK-242 and/or Dexamethasone are tested. […] IL-6, TNF-α, IL-1β, IFN-γ, MIP-1β, IP-10 and MCP-1 secretion after 24 hours of transfection of 5×105 hPMBCs was evaluated in the supernatants using MSD Kit Standard Protocol. Primary human hepatocytes were transfected with a dose variation between 0.01-1 μg of modRNA and luciferase expression is evaluated over the course of 6 days.
FIG. 10A is a scatter plot illustrating quantified IL-6 secretion in hPBMCs upon exposure to different doses of tested formulations. FIG. 10B is a scatter plot illustrating quantified TNF-α secretion in hPBMCs upon exposure to different doses of tested formulations. […]

As for `COc1cccc(/C=N/c2cccc(C(=O)O)c2C)c1O` [TL2-C29], the “secretion of pro-inflammatory cytokines” value with human PBMCs is listed as “able to inhibit”.

As to `CCOC(=O)C1=CCCC[C@H]1S(=O)(=O)Nc1ccc(F)cc1Cl` [TAK-242], the “secretion of pro-inflammatory cytokines (IL-6, TNF-α, IL-1β, IFN-γ)” value with hPBMCs was “reduction of pro-inflammatory cytokines”.
